Measurements reported in patent US11820773B2, “Tricyclic compounds” (ALIGOS THERAPEUTICS, INC., priority 2020, dated 2023).

These molecules were tested on HBV (assay: HBV-DNA antiviral assay using HepG2.117 cells (intracellular HBV DNA by qPCR)). Conditions: HBV DNA inhibition, 3 days incubation, 2% DMSO.
Format: cell-based, genotype D HBV
Summary of the method: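 Endpoints are intracellular HBV DNA by qPCR (interpolated from a gBlock standard curve) and ATP-based viability in duplicate plates. Doxycycline-free HepG2.117 Tet-off cells received compounds (9 concentrations, 4-fold steps, 2% DMSO) for 3 days. Inhibition normalised to DMSO wells; EC50/EC90/CC50 by curve fitting.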

| SMILES | EC50 |
| --- | --- |
| CNC(=O)c1ccc(-n2c(=O)c3c(n4ncc(CC5CC5)c24)CN(C(=O)c2ccc(Br)c(C(F)(F)F)c2)C(C)C3)cc1 (racemic) [Compound 21a, N-methyl-4-[rac-(11R)-12-[4-bromo-3-(trifluoromethyl)benzoyl]-5-(cyclopropylmethyl)-11-methyl-8-oxo-2,3,7,12-tetrazatricyclo[7.4.0.0^2,6]trideca-1(9),3,5-trien-7-yl]benzamide] | < 50 nM |

Same assay, conditions: Hepatitis B virus, 72 h, HBV DNA inhibition, 3 days incubation, 2% DMSO

| SMILES | EC50 |
| --- | --- |
| C[C@H]1Cc2c(n3ncc(Cc4ccccc4)c3n(-c3ccc(-c4noc(=O)n4C)cc3)c2=O)CN1C(=O)c1ccc(Br)c(C(F)(F)F)c1 (stereo in doubt) [Compound 41b, 4-methyl-3-[4-[rac-(11S)-5-benzyl-12-[4-bromo-3-(trifluoromethyl)benzoyl]-11-methyl-8-oxo-2,3,7,12-tetrazatricyclo[7.4.0.0^2,6]trideca-1(9),3,5-trien-7-yl]phenyl]-1,2,4-oxadiazol-5-one] | 50 to 500 nM |
| CNC(=O)c1cnc(-n2c(=O)c3c(n4ncc(CC(C)C)c24)CN(C(=O)c2ccc(Br)c(C(F)(F)F)c2)[C@@H](C)C3)cn1 (stereo in doubt) [Compound 89b, [rac-(11S)-12-[4-bromo-3-(trifluoromethyl)benzoyl]-5-isobutyl-11-methyl-8-oxo-2,3,7,12-tetrazatricyclo[7.4.0.0^2,6]trideca-1(9),3,5-trien-7-yl]pyrazine-2-carboxamide] | 50 to 500 nM |
| CC(C)Cc1cnn2c3c(c(=O)n(-c4ccc(-c5nc(=O)on5C)cc4)c12)C[C@H](C)N(C(=O)c1ccc(Br)c(C(F)(F)F)c1)C3 (stereo in doubt) [Compound 94b, 2-methyl-3-[4-[rac-(11S)-12-[4-bromo-3-(trifluoromethyl)benzoyl]-5-isobutyl-11-methyl-8-oxo-2,3,7,12-tetrazatricyclo[7.4.0.0^2,6]trideca-1(9),3,5-trien-7-yl]phenyl]-1,2,4-oxadiazol-5-one] | 50 to 500 nM |
| CNC(=O)c1ccc(-n2c(=O)c3c(n4ncc(CC5CCC5)c24)CN(C(=O)c2ccc(Br)c(C(F)(F)F)c2)[C@@H](C)C3)cc1 (stereo in doubt) [Compound 37b, N-methyl-4-[rac-(11S)-12-[4-bromo-3-(trifluoromethyl)benzoyl]-5-(cyclobutylmethyl)-11-methyl-8-oxo-2,3,7,12-tetrazatricyclo[7.4.0.0^2,6]trideca-1(9),3,5-trien-7-yl]benzamide] | 50 to 500 nM |
| CC(C)Cc1cnn2c3c(c(=O)n(-c4ccc5c(c4)nnn5C)c12)C[C@H](C)N(C(=O)c1ccc(Br)c(C(F)(F)F)c1)C3 (stereo in doubt) [Compound 95b, rac-(11S)-12-[4-bromo-3-(trifluoromethyl)benzoyl]-5-isobutyl-11-methyl-7-(1-methylbenzotriazol-5-yl)-2,3,7,12-tetrazatricyclo[7.4.0.0^2,6]trideca-1(9),3,5-trien-8-one] | 50 to 500 nM |
| C[C@H]1Cc2c(n3ncc(CC4CCC4)c3n(-c3ccc(-c4nncn4C)cc3)c2=O)CN1C(=O)c1ccc(Br)c(Cl)c1 (stereo in doubt) [Compound 48b, rac-(11S)-12-(4-bromo-3-chloro-benzoyl)-5-(cyclobutylmethyl)-11-methyl-7-[4-(4-methyl-1,2,4-triazol-3-yl)phenyl]-2,3,7,12-tetrazatricyclo[7.4.0.0^2,6]trideca-1(9),3,5-trien-8-one] | 50 to 500 nM |
| C[C@H]1Cc2c(n3ncc(Cc4ccccc4)c3n(-c3ccc(-c4cnnn4C)cc3)c2=O)CN1C(=O)c1ccc(Br)c(C(F)(F)F)c1 (stereo in doubt) [Compound 105b, rac-(11S)-5-benzyl-12-[4-bromo-3-(trifluoromethyl)benzoyl]-11-methyl-7-[4-(3-methyltriazol-4-yl)phenyl]-2,3,7,12-tetrazatricyclo[7.4.0.0^2,6]trideca-1(9),3,5-trien-8-one] | 50 to 500 nM |
